# Assay results published in patent US20060004197A1, “Sulfonamide-based compounds as protein tyrosine kinase inhibitors” (priority 2004, published 2006).
# Target: T1, Recombinant human Src (Homo sapiens, UniProt P12931)
# T1 construct: made in house; host or cells: baculovirus-insect cell system
# Experiment: Src tyrosine kinase activity, poly E4Y / 32P-ATP phosphorylation assay
# Format: biochemical
# Details: Table 3, Formula II compounds; NI = no inhibition at 100 μg/mL
# Method: Recombinant human Src was expressed using the baculovirus-insect cell system and purified as published (Budde et al., 1993 and 2000).
# The tyrosine kinase activity of Src, Csk and FGFr was determined using poly E4Y and ^32P-ATP. Briefly, enzymes were assayed in a reaction mixture consisting of 0.15 M EPPS-NaOH (pH 8.0) with 6 mM MgCl2, 0.2 mM γ^32P-ATP (0.2-0.4 mCi/μmol), 10% glycerol, 0.1% Triton X-100, and poly E4Y. Poly E4Y is a synthetic peptide whose phosphorylation is measured in this assay by the addition of the radioactively labeled phosphate from the ATP (Budde et al., 1995). […] When ATP was varied (0, 50, 100 and 250 μM), poly E4Y was kept constant at 150 μg/ml.
# T1 sequence (P12931 whole entry): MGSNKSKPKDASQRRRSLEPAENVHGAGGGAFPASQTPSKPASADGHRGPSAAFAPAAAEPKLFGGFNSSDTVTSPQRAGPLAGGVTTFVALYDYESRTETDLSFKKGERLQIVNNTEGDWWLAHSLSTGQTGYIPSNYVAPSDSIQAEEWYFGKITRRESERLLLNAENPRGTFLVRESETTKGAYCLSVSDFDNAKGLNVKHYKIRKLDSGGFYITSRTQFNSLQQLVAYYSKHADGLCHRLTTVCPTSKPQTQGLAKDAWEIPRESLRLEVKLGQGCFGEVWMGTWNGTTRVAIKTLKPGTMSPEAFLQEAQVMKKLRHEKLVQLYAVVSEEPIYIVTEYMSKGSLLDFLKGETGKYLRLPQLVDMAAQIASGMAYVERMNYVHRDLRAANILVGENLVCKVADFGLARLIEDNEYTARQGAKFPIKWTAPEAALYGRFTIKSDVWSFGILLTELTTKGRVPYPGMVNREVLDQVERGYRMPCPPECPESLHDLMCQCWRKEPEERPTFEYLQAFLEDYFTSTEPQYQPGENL
row,IC50 [µM],SMILES
1,154,"COc1ccc(Oc2ccc(NS(=O)(=O)c3sc(NC(C)=O)nc3C)c(NS(=O)(=O)c3ccc(C)cc3)c2)cc1 [Compound 22q, N-{5-[4-(4-methoxy-phenoxy)-2-(4-toluenesulfonylamino)-phenylsulfamoyl]-4-methyl-thiazol-2-yl}-acetamide]"
2,44,"COc1ccc(Oc2ccc(NS(=O)(=O)c3cnc(Cl)c(Br)c3)c(NS(=O)(=O)c3ccc(C)cc3)c2)cc1 [Compound 22t, 5-bromo-6-chloro-N-[4-(4-methoxy-phenoxy)-2-(4-toluenesulfonylamino)-phenyl]-pyridine-3-sulfonamide]"
3,36,"CCCCc1ccc(S(=O)(=O)Nc2ccc(Oc3ccc(OC)cc3)cc2NS(=O)(=O)c2ccc(C)cc2)cc1 [Compound 22x, 4-butyl-N-[4-(4-methoxy-phenoxy)-2-(4-toluenesulfonylamino)-phenyl]-benzenesulfonamide]"
4,174,"COc1ccc(Oc2ccc(NS(=O)(=O)c3ccc(S(C)(=O)=O)cc3)c(NS(=O)(=O)c3ccc(C)cc3)c2)cc1 [Compound 22z, 4-methanesulfonyl-N-[4-(4-methoxy-phenoxy)-2-(4-toluenesulfonylamino)-phenyl]-benzenesulfonamide]"

# The remaining lines, values behind:
row,SMILES,IC50 [µM]
1,"Cc1ccc(S(=O)(=O)Nc2ccc(C(=NOCc3ccccc3)c3ccccc3)cc2NS(=O)(=O)c2ccc(C)cc2)cc1 [Compound 22ii, N-[4-(benzyloxyimino-phenyl-methyl)-2-(4-toluenesulfonylamino)-phenyl]-4-toluenesulfonamide]",64
2,"Cc1ccc(S(=O)(=O)Nc2ccc(NS(=O)(=O)c3c(C)noc3C)cc2NS(=O)(=O)c2ccc(C)cc2)cc1 [Compound 22j, 3,5-dimethyl-N-[3,4-bis-(4-toluenesulfonylamino)-phenyl]-isoxazole-4-sulfonamide]",25
3,"COc1ccc(Oc2ccc(NS(=O)(=O)c3c(C)noc3C)c(NS(=O)(=O)c3ccc(C)cc3)c2)cc1 [Compound 22r, 3,5-dimethyl-N-[4-(4-methoxy-phenoxy)-2-(4-toluenesulfonylamino)-phenyl]-isoxazole-4-sulfonamide]",335
4,"COc1ccc(Oc2ccc(NS(=O)(=O)c3ccc(Cl)c4nonc34)c(NS(=O)(=O)c3ccc(C)cc3)c2)cc1 [Compound 22u, 7-chloro-N-[4-(4-methoxy-phenoxy)-2-(4-toluenesulfonylamino)-phenyl]-benzo[1,2,5]oxadiazole-4-sulfonamide]",20
5,"COc1ccc(Oc2ccc(NS(=O)(=O)CCc3cccc4ccccc34)c(NS(=O)(=O)c3ccc(C)cc3)c2)cc1 [Compound 22y, N-[5-(4-methoxy-phenoxy)-2-(2-naphthalen-1-yl-ethanesulfonylamino)-phenyl]-4-toluenesulfonamide]",20

# Same assay, conditions: Table 3; compound at 15 μg/mL
row,% Inhibition at 15 μg/mL Src (%),SMILES
1,5,Cc1ccc(S(=O)(=O)Nc2ccc(CO)cc2NS(=O)(=O)c2ccc(C)cc2)cc1 [Compound 22l]

# Same assay, conditions: Table 3; compound at 15 μg/mL; read-out: % Inhibition at 15 μg/mL Src (%)
row,inhibition at 15 µg/mL [%],SMILES
1,23,"CON=C(c1ccccc1)c1ccc(NS(=O)(=O)c2ccc(C)cc2)c(NS(=O)(=O)c2ccc(C)cc2)c1 [Compound 22kk, N-[4-(methoxyimino-phenyl-methyl)-2-(4-toluenesulfonylamino)-phenyl]-4-toluenesulfonamide]"
2,22,"COc1ccc(Oc2ccc(NS(=O)(=O)c3ccc(C)cc3)c(NS(C)(=O)=O)c2)cc1 [Compound 22m, N-[2-methanesulfonylamino-4-(4-methoxy-phenoxy)-phenyl]-4-toluenesulfonamide]"
3,17,"COc1ccc(Oc2ccc(NS(C)(=O)=O)c(NS(=O)(=O)c3ccc(C)cc3)c2)cc1 [Compound 22p, N-[2-methanesulfonylamino-5-(4-methoxy-phenoxy)-phenyl]-4-toluenesulfonamide]"

# Further lines, the molecule ahead of its results:
row,SMILES,inhibition at 15 µg/mL [%]
1,"Cc1ccc(S(=O)(=O)Nc2ccc(C(=NO)c3ccccc3)cc2NS(=O)(=O)c2ccc(C)cc2)cc1 [Compound 22jj, N-[4-(hydroxyimino-phenyl-methyl)-2-(4-toluenesulfonylamino)-phenyl]-4-toluenesulfonamide]",16
2,"Cc1ccc(S(=O)(=O)Nc2cc(SCc3ccccc3Cl)ccc2NS(C)(=O)=O)cc1 [Compound 22ll, N-[5-(2-chloro-benzylsulfanyl)-2-methanesulfonylamino-phenyl]-4-toluenesulfonamide]",17
3,"COc1ccc(Oc2ccc(NS(=O)(=O)c3ccc(C)cc3)c(NS(=O)(=O)c3c(C)noc3C)c2)cc1 [Compound 22n, 3,5-dimethyl-N-[5-(4-methoxy-phenoxy)-2-(4-toluenesulfonylamino)-phenyl]-isoxazole-4-sulfonamide]",5
4,"Cc1ccc(S(=O)(=O)Nc2ccc(SCc3ccccc3Cl)cc2NS(C)(=O)=O)cc1 [Compound 22nn, N-[4-(2-chloro-benzylsulfanyl)-2-methanesulfonylamino-phenyl]-4-toluenesulfonamide]",21
5,"COc1ccc(Oc2ccc(NS(=O)(=O)c3ccc(C)cc3)c(NS(=O)(=O)c3cn(C)cn3)c2)cc1 [Compound 22o, N-[5-(4-methoxy-phenoxy)-2-(4-toluenesulfonylamino)-phenyl]-1-methyl-1H-imidazole-4-sulfonamide]",0
6,"COc1ccc(Oc2ccc(NS(=O)(=O)c3cn(C)cn3)c(NS(=O)(=O)c3ccc(C)cc3)c2)cc1 [Compound 22s, N-[4-(4-methoxy-phenoxy)-2-(4-toluenesulfonylamino)-phenyl]-1-methyl-1H-imidazole-4-sulfonamide]",3
7,"COc1ccc(Oc2ccc(NS(=O)(=O)c3ccc(-c4ccon4)s3)c(NS(=O)(=O)c3ccc(C)cc3)c2)cc1 [Compound 22v, 5-isoxazol-3-yl-N-[4-(4-methoxy-phenoxy)-2-(4-toluenesulfonylamino)-phenyl]-thiophene-2-sulfonamide]",22
8,"COC(=O)c1c(S(=O)(=O)Nc2ccc(Oc3ccc(OC)cc3)cc2NS(=O)(=O)c2ccc(C)cc2)c(C)n(C)c1C [Compound 22w, methyl 4-[4-(4-methoxy-phenoxy)-2-(4-toluenesulfonylamino)-phenylsulfamoyl]-1,2,5-trimethyl-1H-pyrrole-3-carboxylate]",6

# Same assay, conditions: Table 4, Formula III compounds; NI = no inhibition at 100 μg/mL
row,IC50 [µM],SMILES
1,77,"COc1ccc(Oc2cc(NS(=O)(=O)c3ccc(C)cc3)c(NS(=O)(=O)c3ccc(C)cc3)cc2C(=O)O)cc1 [Compound 34, 2-(4-methoxy-phenoxy)-4,5-bis-(4-toluenesulfonylamino)-benzoic acid]"
2,118,"COc1ccc(Oc2cc(NS(=O)(=O)c3ccc(C)cc3)c(NS(=O)(=O)c3ccc(C)cc3)cc2C)cc1 [Compound 37, N-[4-(4-methoxy-phenoxy)-5-methyl-2-(4-toluenesulfonylamino)-phenyl]-4-toluenesulfonamide]"
3,2.2,"Cc1ccc(S(=O)(=O)Nc2cc(F)c(SCc3ccccc3Cl)cc2NS(=O)(=O)c2ccc(C)cc2)cc1 [Compound 38c, N-[4-(2-chloro-benzylsulfanyl)-5-fluoro-2-(4-toluenesulfonylamino)-phenyl]-4-toluenesulfonamide]"

# Same assay, conditions: Table 4; compound at 15 μg/mL; read-out: % Inhibition at 15 μg/mL Src (%)
row,inhibition at 15 µg/mL [%],SMILES
1,50,"COc1ccc(Oc2cc(NS(=O)(=O)c3ccc(C)cc3)c(NS(=O)(=O)c3ccc(C)cc3)cc2C(F)(F)F)cc1 [Compound 38b, N-[4-(4-methoxy-phenoxy)-2-(4-toluenesulfonylamino)-5-trifluoromethyl-phenyl]-4-toluenesulfonamide]"
